Columns and labels:
MCF-7 = test: MTT anti-proliferative assay, MCF-7; type: cell-based, human
HepG-2 = test: MTT anti-proliferative assay, HepG-2; type: cell-based, human
K-562 = test: MTT anti-proliferative assay, K-562; type: cell-based, human
caspase-3 = test: Caspase-3 expression level in HepG-2 cells; type: cell-based, human; conditions: for Caspase-3 ± SE: HepG-2, at IC50 concentrations, control 0.460
Protocol: (§1) All synthesized compounds were tested at their cytotoxic concentrations in HepG-2 cells for analysis of gene expression levels of apoptotic markers caspase-3, caspase-9, TNF-α, and IL-6 proteins, and only two active compounds were tested for BAX and Bcl-2 proteins.
(§2) through Flow cytometric analysis.
(§3) Pellets were collected again and incubated with
(§4) Total RNA from vehicle-treated
(§5) (Thermo Scientific, USA).
(§6) All experiments were performed in […]

caspase-9 = test: Caspase-9 expression level in HepG-2 cells; type: cell-based, human; conditions: for Caspase-9 ± SE: HepG-2, at IC50 concentrations, control 11.01
Protocol: as §1, §2, §3, §4, §5, §6

TNF-alpha = TNF-alpha level in HepG-2 cells; type: cell-based, human; conditions: for TNF-alpha ±SE: control 43.48
Protocol: as §1, §2, §3, §4, §5, §6

IL-6R = IL-6R level in HepG-2 cells; type: cell-based, human
Protocol: as §1, §2, §3, §4, §5, §6

EGFR = EGFR (Homo sapiens, UniProt P00533); test: EGFR kinase inhibition assay (ELISA kit)
VEGFR-2 = VEGFR-2 (Homo sapiens, UniProt P35968); test: In vitro VEGFR-2 inhibitory assay (ELISA kit); conditions: VEGFR-2 kinase
VEGFR-2, sequence (P35968 20-1356): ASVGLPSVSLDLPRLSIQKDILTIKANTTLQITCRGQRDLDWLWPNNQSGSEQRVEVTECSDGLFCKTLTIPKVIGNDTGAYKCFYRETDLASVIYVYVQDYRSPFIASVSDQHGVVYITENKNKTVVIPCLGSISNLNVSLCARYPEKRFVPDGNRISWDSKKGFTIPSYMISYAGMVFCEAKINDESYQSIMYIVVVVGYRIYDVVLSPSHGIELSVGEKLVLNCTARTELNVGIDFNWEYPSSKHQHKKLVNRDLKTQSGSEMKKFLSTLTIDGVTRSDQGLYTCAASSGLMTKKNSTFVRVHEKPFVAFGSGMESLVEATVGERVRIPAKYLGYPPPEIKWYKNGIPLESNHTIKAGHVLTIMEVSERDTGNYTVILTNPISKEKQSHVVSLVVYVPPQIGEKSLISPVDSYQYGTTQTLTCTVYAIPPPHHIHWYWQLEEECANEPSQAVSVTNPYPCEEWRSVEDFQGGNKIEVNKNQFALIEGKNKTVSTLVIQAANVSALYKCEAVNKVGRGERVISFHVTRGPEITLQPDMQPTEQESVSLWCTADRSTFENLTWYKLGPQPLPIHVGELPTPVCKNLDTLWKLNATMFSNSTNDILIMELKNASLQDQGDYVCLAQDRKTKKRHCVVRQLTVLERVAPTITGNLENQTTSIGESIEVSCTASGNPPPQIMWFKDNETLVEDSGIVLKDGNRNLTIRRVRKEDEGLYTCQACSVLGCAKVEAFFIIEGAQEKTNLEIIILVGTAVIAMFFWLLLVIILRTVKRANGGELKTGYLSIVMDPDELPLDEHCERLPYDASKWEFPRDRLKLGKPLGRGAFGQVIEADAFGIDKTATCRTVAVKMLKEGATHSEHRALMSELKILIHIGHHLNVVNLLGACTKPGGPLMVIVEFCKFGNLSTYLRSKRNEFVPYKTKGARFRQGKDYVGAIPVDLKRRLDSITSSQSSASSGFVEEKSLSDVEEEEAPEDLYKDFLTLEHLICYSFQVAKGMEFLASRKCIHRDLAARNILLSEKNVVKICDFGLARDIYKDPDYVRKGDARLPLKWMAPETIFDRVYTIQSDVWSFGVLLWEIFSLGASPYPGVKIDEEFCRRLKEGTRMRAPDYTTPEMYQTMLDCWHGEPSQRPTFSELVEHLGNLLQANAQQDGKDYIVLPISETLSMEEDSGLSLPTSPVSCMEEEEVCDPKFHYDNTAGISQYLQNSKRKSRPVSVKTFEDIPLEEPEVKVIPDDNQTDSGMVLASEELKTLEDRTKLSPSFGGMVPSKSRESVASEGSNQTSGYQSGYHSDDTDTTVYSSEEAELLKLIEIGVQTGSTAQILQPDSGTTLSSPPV

Activity % (EGFR; HepG2): 18.428%
Inhibition % (EGFR; HepG2): 81.572%
Activity % (EGFR; K-562): 16.638%
Inhibition % (EGFR; K-562): 83.362%
Activity % (EGFR; MCF7): 30.226%
Inhibition % (EGFR; MCF7): 69.774%
Activity % (VEGFR-2; HepG2): 19.818%
Inhibition % (VEGFR-2; HepG2): 80.182%
Activity % (VEGFR-2; K-562): 41.248%
Inhibition % (VEGFR-2; K-562): 58.752%
Activity % (VEGFR-2; MCF7): 52.958%
Inhibition % (VEGFR-2; MCF7): 47.042%
Substance: N-(2,6-Dichlorophenyl)-2-(7-nitro-4-oxoquinazolin-3(4H)-yl)acetamide [9d]
Toxicity % (MCF-7; MCF-7, 0.195 umol): 49.43%
Viability % (MCF-7; MCF-7, 0.195 umol): 50.57%
Toxicity % (MCF-7; MCF-7, 0.391 umol): 61.52%
Viability % (MCF-7; MCF-7, 0.391 umol): 38.48%
Toxicity % (MCF-7; MCF-7, 0.781 umol): 74.05%
Viability % (MCF-7; MCF-7, 0.781 umol): 25.95%
Toxicity % (MCF-7; MCF-7, 1.563 umol): 65.74%
Toxicity % (MCF-7; MCF-7, 3.125 umol): 91.03%
Viability % (MCF-7; MCF-7, 3.125 umol): 8.971%
Toxicity % (MCF-7; MCF-7, 6.25 umol): 92.04%
Viability % (MCF-7; MCF-7, 6.25 umol): 7.96%
Toxicity % (MCF-7; MCF-7, 12.5 umol): 93.58%
Viability % (MCF-7; MCF-7, 12.5 umol): 6.42%
Toxicity % (MCF-7; MCF-7, 25 umol): 92.88%
Viability % (MCF-7; MCF-7, 25 umol): 7.124%
IC50 (MCF-7; MTT, MCF-7, read-out: Cytotoxicity against cancer cells IC50 MCF-7): 0.204 ± 0.0026 µM
Toxicity % (HepG-2; HepG-2, 0.195 ug/ml): 39.23%
Viability % (HepG-2; HepG-2, 0.195 ug/ml): 60.77%
Toxicity % (HepG-2; HepG-2, 0.391 ug/ml): 55.68%
Viability % (HepG-2; HepG-2, 0.391 ug/ml): 44.32%
Toxicity % (HepG-2; HepG-2, 0.781 ug/ml): 70.62%
Viability % (HepG-2; HepG-2, 0.781 ug/ml): 29.38%
Toxicity % (HepG-2; HepG-2, 1.563 ug/ml): 85.02%
Viability % (HepG-2; HepG-2, 1.563 ug/ml): 14.98%
Toxicity % (HepG-2; HepG-2, 3.125 ug/ml): 89.27%
Viability % (HepG-2; HepG-2, 3.125 ug/ml): 10.73%
Toxicity % (HepG-2; HepG-2, 6.25 ug/ml): 91.87%
Viability % (HepG-2; HepG-2, 6.25 ug/ml): 8.132%
Toxicity % (HepG-2; HepG-2, 12.5 ug/ml): 93.19%
Viability % (HepG-2; HepG-2, 12.5 ug/ml): 6.813%
Toxicity % (HepG-2; HepG-2, 25 ug/ml): 93.7%
Viability % (HepG-2; HepG-2, 25 ug/ml): 6.3%
IC50 (HepG-2; MTT, HepG-2, read-out: Cytotoxicity against cancer cells IC50 HepG-2): 0.3227 ± 0.0029 µM
Toxicity % (K-562; K-562, 0.195 umol): 0.4516%
Viability % (K-562; K-562, 0.195 umol): 99.55%
Toxicity % (K-562; K-562, 0.391 umol): 4.146%
Viability % (K-562; K-562, 0.391 umol): 95.85%
Toxicity % (K-562; K-562, 0.781 umol): 28.41%
Viability % (K-562; K-562, 0.781 umol): 71.59%
Toxicity % (K-562; K-562, 1.563 umol): 39.82%
Viability % (K-562; K-562, 1.563 umol): 60.18%
Toxicity % (K-562; K-562, 3.125 umol): 62.19%
Viability % (K-562; K-562, 3.125 umol): 37.81%
Toxicity % (K-562; K-562, 6.25 umol): 87.81%
Viability % (K-562; K-562, 6.25 umol): 12.19%
Toxicity % (K-562; K-562, 12.5 umol): 90.52%
Viability % (K-562; K-562, 12.5 umol): 9.483%
Toxicity % (K-562; K-562, 25 umol): 92.57%
Viability % (K-562; K-562, 25 umol): 7.43%
IC50 (K-562; MTT, K-562, read-out: Cytotoxicity against cancer cells IC50 K-562): 2.274 ± 0.0035 µM
Caspase-3 ± SE (caspase-3): 0.68 ± 0.013 ng/mL
Caspase-3 ± SE (caspase-3; listed as N3): 0.68 ng/mL
caspase-3 expression level, fold increase (caspase-3; HepG-2, vs control cells): 1.5 fold
Caspase-9 ± SE (caspase-9): 43.52 ± 3.69 ng/L
Caspase-9 ± SE (caspase-9; listed as N3): 43.52 ng/L
caspase-9 expression level, fold increase (caspase-9; HepG-2, vs control cells): 3.95 fold
TNF-alpha ±SE (TNF-alpha; HepG-2, at IC50 concentrations): 10.2 ± 1.53 ng/L
TNF-α expression level (TNF-alpha; HepG-2, control 43.48%): 10.2 ng/L
TNF-alpha ±SE (TNF-alpha; raw data, HepG2): 16.01 ng/L
IL-6R ± SE (IL-6R; HepG-2, at IC50 concentrations, control 44.10): 16.64 ± 0.83 ng/L
IL-6R protein level (IL-6R; HepG-2, control 44.10%): 16.64 ng/L
IL-6 ±SE (IL-6R; raw data, HepG2, control 44.10): 10.13 ng/L

Reference: paper PMC12377202, “Design, synthesis, and cytotoxic evaluation of quinazoline-based derivatives as VEGER-2 inhibitors: comparative study against EGFR kinase activity, induction of apoptosis, and molecular docking study” (RSC Advances, 2025)
